Counter-ions that a name gives are not always drawn.
Assay: RP, Waters ACQUITY Premier BEH C18, 100 × 2.1 mm, 1.7 µm, 40 °C, 0.3 to 0.4 mL/min, estimated dead time 0.73 min; A: water + 0.1% formic acid; B: acetonitrile + 0.1% formic acid; gradient (min/%B) 0/0.5 0.1/0.5 10/80 10.1/99.5 12/0.5 12.1/0.5 14.5/0.5
Conditions: stereoisomer not certain

Row | LC retention time | SMILES
1 | 2.13 min | NC(=O)c1ccc[n+](C2OC(COP(=O)(O)OP(=O)(O)OCC3OC(n4cnc5c(N)ncnc54)C(O)C3O)C(O)C2O)c1 (stereo not drawn) [BETA-NICOTINAMIDE ADENINE DINUCLEOTIDE]
2 | 3.67 min | C=C(CC(=O)O)C(=O)O [ITACONATE]
3 | 2.79 min | CCCCC(N)C(=O)O (stereo not given) [NORLEUCINE]
4 | 0.886 min | CC(C)(N)C(=O)O [2-AMINOISOBUTYRATE]
5 | 5.38 min | O=C(O)C(=O)Cc1ccccc1 [PHENYLPYRUVATE]
6 | 4.05 min | O=C(O)C1CCC(O)CC1 (stereo not given) [4-HYDROXYCYCLOHEXYLCARBOXYLIC ACID]
7 | 4.88 min | CC(=O)NC(CC(C)C)C(=O)O (stereo not given) [N-ACETYLLEUCINE]
8 | 4.44 min | O=c1cc(-c2ccc(O)c(O)c2)oc2cc(OC3OC(CO)C(O)C(O)C3O)cc(O)c12 (stereo not given) [LUTEOLIN-7-GLUCOSIDE]
9 | 6.68 min | O=C1OCC(Cc2cccc(O)c2)C1Cc1cccc(O)c1 (stereo not given) [ENTEROLACTONE]
10 | 1.87 min | O=c1[nH]c(=O)c2ncn(C3OC(COP(=O)(O)O)C(O)C3O)c2[nH]1 (stereo not given) [XANTHOSINE-MONOPHOSPHATE]
11 | 1.76 min | O=c1[nH]cnc2nc[nH]c12 [HYPOXANTHINE]
12 | 10.8 min | CC(C)=CCCC(C)=CCC1=C(C)C(=O)c2ccccc2C1=O [MENAQUINONE]
13 | 3.74 min | O=C([O-])C(O)Cc1ccc(O)c(O)c1.[Na+] (stereo not given) [3-(3,4-DIHYDROXYPHENYL)LACTIC ACID]
14 | 3.85 min | Oc1ccccc1O [PYROCATECHOL]
15 | 4.37 min | O=C(O)c1ccc(O)cc1 [4-HYDROXYBENZOATE]
16 | 4.48 min | Cc1cc2nc[nH]c2cc1C [5,6 DIMETHYLBENZIMIDAZOLE]
17 | 4.72 min | O=C(O)c1cccc(O)c1 [3-HYDROXYBENZOATE]
18 | 9 min | CCCCCC=CCC=CCC=CCC=CCCCC(=O)O [ARACHIDONIC ACID]
19 | 6.62 min | NC(Cc1cc(I)c(Oc2cc(I)c(O)c(I)c2)c(I)c1)C(=O)O (stereo not given) [THYROXINE]
20 | 5.82 min | O=c1c(O)c(-c2ccc(O)cc2O)oc2cc(O)cc(O)c12 [MORIN]
21 | 5.34 min | COc1ccc(CC(=O)O)cc1OC [HOMOVERATRIC ACID]
22 | 7.44 min | CCCCCCCCCCCCCC(=O)OC(CC(=O)[O-])C[N+](C)(C)C (stereo not given) [TETRADECANOYLCARNITINE]

Row | LC retention time | SMILES
23 | 4 min | CC(=O)NC(CS)C(=O)O (stereo not given) [N-ACETYLCYSTEINE]
24 | 2.4 min | CC(=O)NC(C)C(=O)O (stereo not given) [N-ACETYLALANINE]
25 | 6.56 min | CCCc1oc(CCC(=O)O)c(C(=O)O)c1C [3-CARBOXY-4-METHYL-5-PROPYL-2-FURANPROPIONIC ACID]
26 | 3.79 min | O=C(O)CCCCCCC(=O)NCC(=O)O [SUBERYLGLYCINE]
27 | 7.09 min | CCCCCCC[C@@H](O)CC(=O)O [(R)-3-HYDROXYDECANOIC ACID]
28 | 1.34 min | O=C1CCCC(C(=O)O)N1 (stereo not given) [6-OXOPIPERIDINE-2-CARBOXYLIC ACID]
29 | 4.41 min | O=C(O)Cc1c[nH]c2ccc(O)cc12 [5-HYDROXYINDOLEACETATE]
30 | 6.28 min | O=CCc1c[nH]c2ccccc12 [INDOLEACETALDEHYDE]
31 | 7.2 min | CCOC(=O)Cc1c[nH]c2ccccc12 [ETHYL 3-INDOLEACETATE]
32 | 5.49 min | Cc1cc2nc3[nH]c(=O)[nH]c(=O)c3nc2cc1C [LUMICHROME]
33 | 1.28 min | NC(=O)c1ncn(C2OC(COP(=O)(O)O)C(O)C2O)c1N (stereo not given) [AICAR]
34 | 0.962 min | O=CNCC(=O)O [N-FORMYLGLYCINE]
35 | 7.67 min | CC(CCC(=O)O)C1CCC2C3CCC4CC(O)CCC4(C)C3CC(O)C12C (stereo not given) [DEOXYCHOLATE]
36 | 7.1 min | CCCCCC1CCCC(=O)O1 (stereo not given) [DELTA-DECALACTONE]
37 | 1.37 min | Nc1ccn(C2CC(O)C(COP(=O)(O)O)O2)c(=O)n1 (stereo not given) [DEOXYCYTIDINE MONOPHOSPHATE]
38 | 1.78 min | Nc1ccn(C2CC(O)C(CO)O2)c(=O)n1 (stereo not given) [DEOXYCYTIDINE]
39 | 4.71 min | O=C(O)c1cccc(O)c1O [2,3-DIHYDROXYBENZOATE]
40 | 0.921 min | OCC1OC(OCC2OC(OCC3OC(OC4(CO)OC(CO)C(O)C4O)C(O)C(O)C3O)C(O)C(O)C2O)C(O)C(O)C1O (stereo not given) [STACHYOSE]
41 | 4.7 min | CC1OC(OC2C(Oc3cc(O)c4c(c3)OC(c3ccc(O)cc3)CC4=O)OC(CO)C(O)C2O)C(O)C(O)C1O (stereo not given) [NARINGIN]
42 | 4.12 min | O=C(O)C[C@H]1CC[C@@H](O)CC1 [CIS-4-HYDROXYCYCLOHEXYLACETIC ACID]
43 | 3.85 min | Nc1c(O)cccc1C(=O)O [3-HYDROXYANTHRANILATE]
44 | 10 min | CCCCCCCCCCCC=CCCCCC(=O)O [PETROSELINATE]

Row | LC retention time | SMILES
45 | 3.97 min | CC(C)(C(=O)O)C(=O)O [DIMETHYLMALONIC ACID]
46 | 7.05 min | CC(=O)OC1CC(=O)OC(C)(C)C2CC(=O)C3(C)C(CCC4(C)C(c5ccoc5)OC(=O)C5OC543)C12C (stereo not given) [NOMILIN]
47 | 5.1 min | O=C1c2c(O)cccc2C(C2OC(CO)C(O)C(O)C2O)c2cc(CO)cc(O)c21 (stereo not given) [ALOIN]
48 | 7.75 min | CCCCCC=CCC=CCCCCCCCC(=O)O [LINOLEATE]
49 | 1.33 min | O=C(O)C1CCCCN1 (stereo not given) [PIPECOLATE]
50 | 3.45 min | O=c1[nH]c(=O)c2ncn(C3OC(CO)C(O)C3O)c2[nH]1 (stereo not given) [XANTHOSINE]
51 | 9.05 min | CC(C=CC1=C(C)CCCC1(C)C)=CC=CC(C)=CC(=O)O [RETINOATE]
52 | 1.21 min | Cn1c(=O)[nH]c2[nH]c(=O)[nH]c2c1=O [1-METHYLURIC ACID]
53 | 3.46 min | NC(Cc1c[nH]c2ccc(O)cc12)C(=O)O (stereo not given) [5-HYDROXYTRYPTOPHAN]
54 | 7.04 min | CC1CCC2(C(=O)O)CCC3(C)C(=CCC4C5(C)CC(O)C(O)C(C)(CO)C5C(O)CC43C)C2C1C (stereo not drawn) [6BETA-HYDROXYASIATIC ACID]
55 | 3.99 min | CCCC(=O)O [BUTANOATE]
56 | 4.5 min | O=C(O)c1c(O)cccc1O [2,6-DIHYDROXYBENZOIC ACID]
57 | 9.25 min | CC(C)=CCCC(C)C1CCC2C3CC=C4CC(O)CCC4(C)C3CCC12C (stereo not given) [DESMOSTEROL]
58 | 5.01 min | O=C(CCc1ccc(O)cc1)c1c(O)cc(O)cc1OC1OC(CO)C(O)C(O)C1O (stereo not given) [PHLORIDZIN]
59 | 1.28 min | Cn1c(=O)[nH]c(=O)c2c1[nH]c(=O)n2C [3,7-DIMETHYLURIC ACID]
60 | 6.68 min | CC(CCC(=O)NCC(=O)O)C1CCC2C3C(O)CC4CC(O)CCC4(C)C3CC(O)C12C (stereo not given) [GLYCOCHOLATE]
61 | 5.7 min | COc1cc(C=CC(=O)O)cc(OC)c1OC [3,4,5-TRIMETHOXYCINNAMIC ACID]
62 | 0.963 min | NC(CCS)C(=O)O (stereo not given) [HOMOCYSTEINE]
63 | 8.7 min | CCCCCCCCCCCCCC(O)CC(=O)O (stereo not given) [3-HYDROXYHEXADECANOIC ACID]
64 | 3.23 min | Cn1c(=O)c2c([nH]c(=O)n2C)n(C)c1=O [1,3,7-TRIMETHYLURIC ACID]
65 | 3.08 min | Nc1ncnc2c1ncn2C1OC(CSCCC(N)C(=O)O)C(O)C1O (stereo not given) [S-ADENOSYLHOMOCYSTEINE]
66 | 7.48 min | CC1(C)C=Cc2c(ccc3c2OCC(c2ccc(O)cc2O)C3)O1 [(R)-GLABRIDIN]

Row | LC retention time | SMILES
67 | 4.31 min | CSc1ncnc2nc[nH]c12 [THIOPURINE S-METHYLETHER]
68 | 5.18 min | O=c1cc(-c2ccc(O)c(O)c2)oc2c(C3OC(CO)C(O)C(O)C3O)c(O)cc(O)c12 (stereo not given) [ORIENTIN]
69 | 1.74 min | NCCc1ccc(O)c(O)c1 [DOPAMINE]
70 | 1.21 min | CC(C)C(N)C(=O)O (stereo not given) [VALINE]
71 | 7.12 min | O=c1c(O)c(-c2ccccc2)oc2cc(O)cc(O)c12 [NORIZALPININ]
72 | 3.5 min | O=C(O)CCCC(=O)O [GLUTARATE]
73 | 0.942 min | NC(N)=S [THIOUREA]
74 | 1.47 min | Nc1nc2c(ncn2C2CC(O)C(COP(=O)(O)O)O2)c(=O)[nH]1 (stereo not given) [DEOXYGUANOSINE-MONOPHOSPHATE]
75 | 1.11 min | Nc1ncnc2c1ncn2C1OC(COP(=O)(O)O)C(OP(=O)(O)O)C1O (stereo not given) [ADENOSINE 3',5'-DIPHOSPHATE]
76 | 6.82 min | CC(CC(=O)CC(C)C1CC(O)C2(C)C3=C(C(=O)CC12C)C1(C)CCC(=O)C(C)(C)C1CC3O)C(=O)O (stereo not given) [GANODERIC ACID A]
77 | 4.4 min | Cc1cc2nc3c(=O)[nH]c(=O)nc-3n(CC(O)C(O)C(O)CO)c2cc1C (stereo not given) [RIBOFLAVIN]
78 | 4.58 min | O=S(=O)(O)Oc1c[nH]c2ccccc12 [INDOXYL SULFATE]
79 | 0.962 min | OCC1OC(OCC2OC(OC3(CO)OC(CO)C(O)C3O)C(O)C(O)C2O)C(O)C(O)C1O (stereo not given) [RAFFINOSE]
80 | 3.98 min | O=C(O)c1cc(=O)c2cccc(O)c2[nH]1 [XANTHURENATE]
81 | 1.37 min | O=C1CCNC(=O)N1 [DIHYDROURACIL]
82 | 2.11 min | O=c1[nH]c(=O)c2[nH]cnc2[nH]1 [XANTHINE]
83 | 0.945 min | NC(=O)c1ncn(C2OC(CO)C(O)C2O)c1N (stereo not given) [AICA-RIBOSIDE]
84 | 2.81 min | CCCCCC(N)C(=O)O (stereo not given) [2-AMINOHEPTANOATE]
85 | 3.29 min | CC(=CC(=O)O)C(=O)O [2-METHYLMALEATE]

Row | SMILES | LC retention time
86 | CC(=O)OC(C)(C)C=CC(=O)C(C)(O)C1C(O)CC2(C)C3CC=C4C(CC(O)C(=O)C4(C)C)C3(C)C(=O)CC12C (stereo not given) [CUCURBITACIN B] | 7.07 min
87 | O=C(O)CCCCCCCCCCCO [OMEGA-HYDROXYDODECANOATE] | 6.99 min
88 | CNCC(O)c1ccc(O)cc1 [D-SYNEPHRINE] | 0.927 min
89 | CC1NCCc2cc(O)c(O)cc21 (stereo not given) [SALSOLINOL] | 2.56 min
90 | CC(C)(C)C1(O)CC2OC(=O)CC23C(=O)OC2OC(=O)C(O)C231 (stereo not given) [BILOBALIDE] | 4.91 min

Source: the RepoRT retention time repository
